Laboratory results published in patent publication US7049116B2, “Engineered protein kinases which can utilize modified nucleotide triphosphate substrates” (Princeton University, priority 1997, dated 2006).
“Also recorded” adds a separate entry of the source. Values belong to the compound of their own block, whether it stands above or below them.

Assays:
PDGFR = settings: cited from earlier work
WT Fyn [1] = target: T1, WT Fyn (Homo sapiens, UniProt P06241); assay: In vitro kinase inhibition assay; format: biochemical; set-up: inhibition of Fyn: dose or concentration left out as unconfirmed
T1 construct: GST; made in house; host or cells: E. coli DH5α (pGEX-KT)

I338G v-Src = target: T2, I338G v-Src (Rous sarcoma virus subgroup A, UniProt P00524, DEL77-225/I338G); assay: biochemical
T2 construct: made in house; host or cells: E. coli DH5α (pGEX-KT)

[2] = test system: tyrosine kinases of murine lymphocyte cell lysate (CF); assay: Screening of nucleotide analogs in murine lymphocyte lysate, anti-phosphotyrosine immunoblot; format: biochemical; settings: 100 μM nucleotide triphosphate, 37° C., five minutes
Method: To identify compounds that would not be accepted as substrates by any existing cellular kinases (53), Applicant screened a panel of synthetic A^*TP analogs in a murine lymphocyte lysate (CF) rich in protein tyrosine kinases (13).
The assays were performed using spleenocytes (8-30 week old male and female C57/B6 mice from the Princeton University Animal Facility) which were isolated and washed in RPMI-1640 medium containing 5% Bovine Calf Serum (BCS), 1% Hepes and DNaseI (1 μg/ml). Red cells were lysed at 4° C. by treatment with 17 mM Tris ammonium chloride (pH 7.2). The cells were hypotonically lysed on ice for ten minutes in 1 mM Hepes (pH 7.4), 5 mM MgCl2, leupeptin (10 μg/ml), aprotinin (10 μg /ml) and 100 μM PMSF according to the method of Fukazawa et al. (51). After vortexing and centrifugation at 500 × g, the supernatant was collected. Cells were stored at 4° C. for twenty minutes to attenuate the basal protein phosphorylation level, after which the buffer was adjusted to 20 mM Hepes (pH 7.4), 10 mM MgCl2 and 1 mM NaF. Sodium vanadate (100 μM) was then added to inhibit the activity of phosphotyrosine phosphatases.
Each nucleotide triphosphate was added to a final concentration of 100 μM to 5×10^6 cell equivalents and incubated at 37° C. for five minutes after which 4 × Laemmli gel loading buffer was added to the cell lysate to quench the reaction. Proteins were separated by 12.5% SDS-PAGE and transferred to Protran BA85 (Schleicher-Schuell). The blot was probed with the anti-phosphotyrosine monoclonal antibody 4G10 (Upstate Biotechnology) and the bound antibody was detected via enhanced chemiluminescence (Pierce) following treatment with HRP-coupled goat anti-mouse antibody (VWR catalog #710133) according to the manufacturer's instructions.
The cell lysate used includes the tyrosine kinases Src, Fyn, Lck, Lyn, Yes, Fgr, Hck, Zap, Syk, Btk, Blk, and other tyrosine kinases present in B and T lymphocytes, macrophages, and follicular dendritic cells (13). Molecular size standards (in kilodaltons) arc indicated.

[3] = test system: B cell receptor (BCR) mediated phosphorylation cascade in murine spleen cells; assay: Murine B cell assay (B cell receptor mediated tyrosine phosphorylation); format: cell-based; settings: 100 μM in […] DMSO, anti-IgM stimulated murine spleen cells
Method: Splenic lymphocytes were isolated from 6-20 week old Balb/c or C57/B6 mice. The cells were washed out of the spleen into RPMI media containing 1 mg/ml DNase I and the red blood cells were lysed in 17 mM tris-ammonium chloride (pH 7.2). Approximately 4×10^6 cells were incubated at 37° C. for thirty minutes with 100 μM of (3g) or (2) in 1.1% DMSO. B cell stimulation was initiated by the addition of […] of goat anti-mouse IgM (Jackson ImmunoResearch) and subsequent incubation for five minutes at 37° C. The cells were isolated by centrifugation (13,000 rpm, two minutes) and lysed (lysis buffer: 1% Triton x-100, 50 mM Tris (pH 7.4), 2 mM EDTA, 150 mM NaCl, 100 mM PMSF, 2 mM sodium orthovanadate, 10 mg/ml leupeptin, 10 mg/ml apoprotin). The cellular debris was then pelleted at 13,000 rpm for fifteen minutes. Cellular proteins were separated by 10% polyacrylamide gel electrophoresis and transferred to a nitrocellulose membrane by Western blotting. Phosphotyrosine containing proteins were visualized by immunoblotting with anti-phosphotyrosine antibody (Upstate Biotechnology).

GST-XD4 (V323A, I338A) [4] = settings: 100 μM analog, 10 μM [γ-32P]ATP
GST-XD4 [5] = target: T3, GST-XD4 (Rous sarcoma virus subgroup A, UniProt P00524, DEL77-225); format: biochemical
T3 construct: contains an intact SH1 catalytic domain but lacks the non-catalytic regulatory SH3 and SH2 domains; made in house; host or cells: E. coli DH5α (pGEX-KT)
Method: (§1) Kinetic constants were determined by analysis of Lineweaver-Burk plots of the rate data (64). […] ATP (1000 cpm/pmol) or [γ-^32P] N^6(cyclopentyl)ATP (5000 cpm/pmol) as indicated.

GST-XD4 (V323A, I338A) [6] = target: T4, GST-XD4 (V323A, I338A) (Rous sarcoma virus subgroup A, UniProt P00524, DEL77-225/I338A/V323A); format: biochemical; settings: GST-XD4 (V323A, I338A), 1 mM RR-Src, 37° C., pH 8.0
T4 construct: contains an intact SH1 catalytic domain but lacks the non-catalytic regulatory SH3 and SH2 domains; made in house; host or cells: E. coli DH5α (pGEX-KT)
Method: as §1

GST-XD4 (V323A, I338A) [7] = format: biochemical, Rous sarcoma virus
Method: as §1

GST-XD4 (I338A) = target: T5, GST-XD4 (I338A) (Rous sarcoma virus subgroup A, UniProt P00524, DEL77-225/I338A); assay: Autophosphorylation of single mutation v-Src mutants; format: biochemical; settings: mutant with alanine at position 338
T5 construct: made in house
Text: (§2) However, these had only single mutations, at position 338. These were again expressed as GST-XD4 fusion proteins.
(§3) The panels on the right side of FIG. 7 tell an even more interesting story.

WT Fyn [8] = target: T1, WT Fyn; settings: published parent molecule; cited from earlier work
[9] = test system: wild-type cellular kinases of murine lymphocyte lysates; assay: In vitro kinase reactions with radiolabeled nucleotide in murine lymphocyte lysates; format: biochemical; settings: 100 μM radiolabeled nucleotide, 37° C., ten minutes
GST-XD4 (I338G) = target: T6, GST-XD4 (I338G) (Rous sarcoma virus subgroup A, UniProt P00524, DEL77-225/I338G); assay: Autophosphorylation of single mutation v-Src mutants; format: biochemical; settings: mutant with glycine at position 338
T6 construct: made in house; host or cells: E. coli DH5α (pGEX-KT)
Text: as §2, §3

GST-XD4 (I338S) = target: T7, GST-XD4 (I338S) (Rous sarcoma virus subgroup A, UniProt P00524, DEL77-225/I338S); assay: as above; format: biochemical; settings: mutant with serine at position 338
T7 construct: made in house
Text: as §2, §3

GST-XD4 [10] = target: T3, GST-XD4; assay: Autophosphorylation autoradiogram; format: biochemical; settings: GST-XD4, FIG. 5C lane 3
Text: (§4) It is even more significant that the new substrate, [γ-^32P]

GST-XD4 (V323A, I338A) [11] = target: T4, GST-XD4 (V323A, I338A); assay: Autophosphorylation autoradiogram; format: biochemical; settings: FIG. 5C lane 4
Text: as §4

T1 sequence (P06241 1-534 isoform P06241-2): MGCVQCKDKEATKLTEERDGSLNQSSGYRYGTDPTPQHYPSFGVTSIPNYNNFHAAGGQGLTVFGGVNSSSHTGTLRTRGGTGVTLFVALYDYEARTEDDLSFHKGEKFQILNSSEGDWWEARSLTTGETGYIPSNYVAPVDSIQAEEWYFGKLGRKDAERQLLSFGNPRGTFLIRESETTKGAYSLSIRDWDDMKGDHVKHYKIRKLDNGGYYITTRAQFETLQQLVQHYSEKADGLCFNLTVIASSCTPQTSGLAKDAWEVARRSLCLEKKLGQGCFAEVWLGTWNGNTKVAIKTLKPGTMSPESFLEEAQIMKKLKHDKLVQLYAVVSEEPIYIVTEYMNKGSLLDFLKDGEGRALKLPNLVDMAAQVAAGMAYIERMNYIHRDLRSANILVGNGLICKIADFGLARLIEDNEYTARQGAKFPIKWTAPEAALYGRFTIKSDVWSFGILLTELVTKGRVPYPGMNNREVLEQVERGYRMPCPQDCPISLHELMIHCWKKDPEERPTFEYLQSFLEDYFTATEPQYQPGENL

SMILES: CC(C)(C)n1nc(-c2ccccc2)c2c(NCc3ccccc3)ncnc21 [Analog 4e, 4-benzylamino-1-tert-buty-3-phenylpyrazolo[3,4-d]pyrimidine]
inhibition of WT Fyn (in words) (WT Fyn [1]): sufficiently orthogonal
inhibition of I338G v-Src (in words) (I338G v-Src): only poor to moderate inhibition

SMILES: CCONc1ncnc2c1ncn2[C@@H]1O[C@H](COP(=O)(O)OP(=O)(O)OP(=O)(O)O)[C@@H](O)[C@H]1O [Analog 2, N^6(ethoxy)ATP]
level of protein tyrosine phosphorylation (ability to serve as cellular tyrosine kinase substrate) [2]: some ability to serve as cellular tyrosine kinase substrates

SMILES: OCC1OC(n2cnc3c(NOC4CCCC4)ncnc32)C(O)C1O (stereo not shown) [N^6 cyclopentyloxyadenosine]
inhibition of Fyn (WT Fyn [1]; concentrations up): no detectable in vitro inhibition

inhibition of WT Fyn (in words) (WT Fyn [1]): highly potent (low nM)
SMILES: CC(C)(C)n1nc(-c2ccccc2)c2c(N)ncnc21 [(2), 4-amino-1-tert-butyl-3-phenylpyrazolo(3,4-d)pyrimidine, reference compound]
phosphotyrosine pattern of B cell stimulation [3]: significant reduction in tyrosine phosphorylation

SMILES: CC(C)(C)n1nc(-c2ccccc2)c2c(NCC3CCCC3)ncnc21 [Analog 4b, 4-cyclopentylmethylamino-1-tert-butyl-3-phenylpyrazolo[3,4-d]pyrimidine]
inhibition of WT Fyn (in words) (WT Fyn [1]): sufficiently orthogonal
inhibition of I338G v-Src (in words) (I338G v-Src): only poor to moderate inhibition

SMILES: CC(C)(C)n1nc(-c2ccccc2)c2c(NCc3ccco3)ncnc21 [Analog 4d, 4-2′-furylmethylamino-1-tert-butyl-3-phenylpyrazolol[3,4-d]pyrimidine]
inhibition of WT Fyn (in words) (WT Fyn [1]): sufficiently orthogonal
inhibition of I338G v-Src (in words) (I338G v-Src): only poor to moderate inhibition

SMILES: CC(=O)Nc1ncnc2c1ncn2[C@@H]1O[C@H](COP(=O)(O)OP(=O)(O)OP(=O)(O)O)[C@@H](O)[C@H]1O [Analog 3, N^6(acetyl)ATP]
level of protein tyrosine phosphorylation (ability to serve as cellular tyrosine kinase substrate) [2]: some ability to serve as cellular tyrosine kinase substrates

SMILES: O=P(O)(O)OP(=O)(O)OP(=O)(O)OC[C@H]1O[C@@H](n2cnc3c(NCc4ccccc4)ncnc32)[C@H](O)[C@@H]1O [Analog 5, N^6(benzyl)ATP]
relative inhibition of GST-XD4 (V323A, I338A) catalyzed RR-Src phosphorylation (GST-XD4 (V323A, I338A) [4]): almost as well as the wild-type kinase
level of protein tyrosine phosphorylation (ability to serve as cellular tyrosine kinase substrate) [2]: little or no protein phosphorylation

SMILES: Nc1ncnc2c1ncn2[C@@H]1O[C@H](COP(=O)(O)OP(=O)(O)OP(=O)(O)O)[C@@H](O)[C@H]1O [ATP, adenosine triphosphate, reference compound]
kcat (GST-XD4 [5]; GST-XD4, 1 mM RR-Src, 37° C., pH 8.0): 0.033 ± 0.0083 s⁻¹
kcat (GST-XD4 (V323A, I338A) [6]): 0.013 ± 0.0033 s⁻¹
KM of the mutant for ATP relative to KM of GST-XD4 for ATP (GST-XD4 (V323A, I338A) [7]; higher in mutant): more than 10 fold
utilization as phosphate donor substrate (autophosphorylation) (GST-XD4 (I338A)): more readily than the mutant with serine; also recorded: better able to use ATP as a substrate than is the mutant with glycine

SMILES: Cc1ccc(-c2nn(C(C)(C)C)c3ncnc(N)c23)cc1 [PPI, 4-amino-1-tert-butyl-3-(p-methylphenyl)pyrazolo(3,4-d)pyrimidine]
inhibition of Fyn (in words) (WT Fyn [8]): highly potent (low nM)

SMILES: CC(C)ONc1ncnc2c1ncn2[C@@H]1O[C@H](COP(=O)(O)OP(=O)(O)OP(=O)(O)O)[C@@H](O)[C@H]1O [Analog 4, N^6(i-propoxy)ATP]
level of protein tyrosine phosphorylation (ability to serve as cellular tyrosine kinase substrate) [2]: little or no protein phosphorylation

SMILES: O=P(O)(O)OP(=O)(O)OP(=O)(O)OC[C@H]1O[C@@H](n2cnc3c(NOC4CCCC4)ncnc32)[C@H](O)[C@@H]1O [Analog 9, N^6(cyclopentyloxy)ATP]
relative inhibition of GST-XD4 (V323A, I338A) catalyzed RR-Src phosphorylation (GST-XD4 (V323A, I338A) [4]): almost as well as the wild-type kinase

SMILES: O=P(O)(O)OP(=O)(O)OP(=O)(O)OCC1OC(n2cnc3c(NC4CCCC4)ncnc32)C(O)C1O (stereo not shown) [Analog 8, N^6(cyclopentyl)ATP]
relative inhibition of GST-XD4 (V323A, I338A) catalyzed RR-Src phosphorylation (GST-XD4 (V323A, I338A) [4]): almost as well as the wild-type kinase
level of protein tyrosine phosphorylation (ability to serve as cellular tyrosine kinase substrate) [2]: slightly lower level of phosphorylation with wild-type kinases
phosphorylation of RR-Src peptide with the nucleotide as phosphate donor (GST-XD4 [5]; wild-type GST-XD4): did not substantially phosphorylate
kcat (GST-XD4 (V323A, I338A) [6]): 0.00083 ± 0.00033 s⁻¹
kcat/KM of mutant with orthogonal substrate relative to kcat/KM of wild-type kinase with ATP (GST-XD4 (V323A, I338A) [7]; lower than wild-type with ATP): 50 fold
radiolabeled phosphoproteins in cell lysate [9]: no radiolabeled phosphoproteins
utilization as phosphate donor substrate (autophosphorylation) (GST-XD4 (I338G)): better able to use N^6(cyclopentyl)ATP as substrate than is the mutant with alanine
utilization as phosphate donor substrate (autophosphorylation) (GST-XD4 (I338S)): not able to utilize N6(cyclopentyl)ATP nearly as well as is the mutant with alanine
use as phosphodonor for autophosphorylation (GST-XD4 [10]): apparent complete inability
use as phosphodonor for autophosphorylation (GST-XD4 (V323A, I338A) [11]): efficiently autophosphorylated

SMILES: O=P(O)(O)OP(=O)(O)OP(=O)(O)OC[C@H]1O[C@@H](n2cnc3c(NC4CCCCC4)ncnc32)[C@H](O)[C@@H]1O [Analog 11, N^6(cyclohexyl)ATP]
relative inhibition of GST-XD4 (V323A, I338A) catalyzed RR-Src phosphorylation (GST-XD4 (V323A, I338A) [4]): almost as well as the wild-type kinase

SMILES: CONc1ncnc2c1ncn2[C@@H]1O[C@H](COP(=O)(O)OP(=O)(O)OP(=O)(O)O)[C@@H](O)[C@H]1O [Analog 1, N^6(methoxy)ATP]
level of protein tyrosine phosphorylation (ability to serve as cellular tyrosine kinase substrate) [2]: some ability to serve as cellular tyrosine kinase substrates

SMILES: O=P(O)(O)OP(=O)(O)OP(=O)(O)OC[C@H]1O[C@@H](n2cnc3c(NOCc4ccccc4)ncnc32)[C@H](O)[C@@H]1O [Analog 6, N^6(benzyloxy)ATP]
level of protein tyrosine phosphorylation (ability to serve as cellular tyrosine kinase substrate) [2]: little or no protein phosphorylation
